This is an account of results in patent US20090047214A1, “Novel methylation marker” (OncoMethylome Sciences S.A., priority 2006, published 2009).

The subject of assay [1] is MCF-7 cells (unmethylated WRN promoter). In words: Apoptosis by flow cytometry. The assay is classed as cell-based, human. Particulars: MCF-7, WRN unmethylated. How it is done:
(§1) The percentage of apoptotic cells was determined by flow cytometry using Vybrant® Apoptosis Assay Kit #4-YO-PRO®-1/propidium iodide (Molecular Probes/Invitrogen). Briefly, cells were washed twice with ice cold PBS and resuspended in PBS containing YO-PRO®-1/propidium iodide. Apoptotic cells were identified by flow cytometry after 20 min of incubation. Cytogenetic assay was performed as previously described (Herranz et al., 2006) analyzing one-hundred metaphases for each experimental condition.
(In general: A flow cytometer gives signals particle by particle.)

Assay [2] has as its system MDA-MB-231 cells (WRN promoter hypermethylation). As to the kind of experiment: Apoptosis by flow cytometry. The assay is classed as cell-based, human. Particulars: MDA-MB-231, WRN hypermethylated; increasing concentrations. How it is done: as §1
The subject of assay [3] is U937 cells (WRN promoter hypermethylation). As to the kind of experiment: Apoptosis by flow cytometry. Type of assay: cell-based, human. Particulars: U937, WRN hypermethylated; increasing concentrations. How it is done:
as §1

For assay [4], the system named is lymphoblastoid cell line from a WS patient (WS-/-). In words: Apoptosis by flow cytometry. The assay is classed as cell-based, human. Particulars: WS patient lymphoblastoid cells, positive control. How it is done: (§2) The eleven human cancer cell lines examined in this study were obtained from the American Type Culture Collection (ATCC) (Rockland, Md., USA) and the German Collection of Microorganisms and Cell Cultures (DSMZ, Braunschweig, Germany). The cell lines represented three different types of malignancies, colon (HCT-116, COLO-205), breast (MCF-7, MDA-MB-468, MDAMB-231) and leukaemia (HL-60, KG1a, U937, REH, Jurkat, K562). Cell lines were maintained in appropriate media and treated with 1 μM 5-aza-2′-deoxycytidine (Sigma) for 3 days to achieve demethylation, as previously described (Herman et al., 1998; Ropero et al., 2004). WS−/− cells (AG11395) were obtained from the Coriel Cell Repositories (Camden, N.J., USA). The collection of primary tumor samples analyzed has been described elsewhere (Esteller et al., 2001; Ropero et al., 2004).
as §1

Assay [5] deals with WRN-transfected MDA-MB-231 cells. In words: Apoptosis by flow cytometry. Type of assay: cell-based, human. Particulars: MDA-MB-231 transfected with WRN. How it is done:
as §1
(§3) The WRN coding sequence corresponding to the cDNA from a BLCL lymphoblastoid-EBV immortalized cell line was amplified by PCR and directly cloned into the pGEM-T Easy Vector (Promega, Winsconsin USA). The WRN insert was subcloned into the pEGFP-N1 expression vector (Invitrogen) and confirmed by sequencing. For transfection experiments we used the pEGFP-N1 vector containing the WRN gene, or the pEGFP-N1 empty vector. Transfection of MDA-MB-231 and U937 cells was performed by electroporating […] in 0.8 ml PBS with 40 μg of the vector at 250 V and 975 μF. After electroporation, cells were washed with PBS and seeded with 10^6 cells/ml in fresh medium containing 20% FBS. Transfected cells were selected by the addition of G418 (600 μg/ml).

For assay [6], the system named is WRN-transfected U937 cells. As to the kind of experiment: Apoptosis by flow cytometry. Type of assay: cell-based, human. Particulars: U937 transfected with WRN. How it is done:
as §1, §3

The test system of assay [7] is lymphoblastoid cells from a WS patient. In words: Cytogenetic chromosomal breakage analysis. The assay is classed as cell-based, human. Particulars: metaphases. The procedure:
as §2, §1

Assay [8] deals with HL60 cells (unmethylated WRN promoter). In words: Cytogenetic chromosomal breakage analysis. The assay is classed as cell-based, human. Particulars: metaphases. How it is done: as §1
Assay [9] has as its system MCF-7 cells (unmethylated WRN promoter). As to the kind of experiment: Cytogenetic chromosomal breakage analysis. Type of assay: cell-based, human. Particulars: MCF-7, WRN unmethylated; metaphases. How it is done: as §1
The test system of assay [10] is MDA-MB-231 cells (WRN aberrant methylation). In words: Cytogenetic chromosomal breakage analysis. The assay is classed as cell-based, human. The procedure:
as §1

The subject of assay [11] is WRN-transfected MDA-MB-231 cells. In words: Cytogenetic chromosomal breakage analysis. Type of assay: cell-based, human. Also noted: dose or concentration left out as unconfirmed. The procedure:
as §1, §3

Assay [12] relates to WRN RNA transcript and protein. In words: Reactivation of WRN expression in WRN-hypermethylated cancer cell lines (RT-PCR, western blot, immunofluorescence). Type of assay: cell-based, human. Particulars: HCT-116, COLO-205, MDA-MB-231 and U937 cell lines; 1 μM for 3 days. The procedure: as §2
RNA was isolated using TRIzol (Life Technologies, Gaithersburg, Md., USA). 2 μg of RNA was reverse-transcribed using SuperScript II reverse transcriptase (Gibco/BRL) and amplified using specific primers for WRN (forward: 5′-GCATGTGTTCGGAAGAGTGTTT-3-(SEQ ID. NO: 6), reverse: 5′-TGACATGGAAGAAACGTGGAA-3 (SEQ ID. NO: 7)) and for GAPDH. […] Cell lysates for protein analysis were prepared and analyzed by western blotting using the WRN antibody ab200 (Rabbit Polyclonal, Abcam). […]

Assay [13] relates to WRN-associated exonuclease activity in U937 cells. As to the kind of experiment: Exonuclease activity assay in WRN-immunoprecipitated cell extracts. Type of assay: cell-based, human. Particulars: 1 μM for 3 days. How it is done: as §2
The exonuclease enzymatic activity was measured as previously described (Brosh et al., 2001). […] The digestion products of these reactions were separated on 15% denaturing polyacrylamide gels, visualized using a PhosphorImager (Molecular Dynamics), and quantitated using ImageQuant software (Molecular Dynamics).

The subject of assay [14] is primary colorectal tumors. As to the kind of experiment: Overall survival of colorectal cancer patients treated with irinotecan, by WRN methylation status (Kaplan-Meier). Type of assay: in vivo, human. Particulars: WRN methylated colon tumors (n=45). The procedure: Contingency tables were analyzed by Fisher's exact test. Overall survival curves were estimated by the Kaplan-Meier method and were compared with the use of the log-rank test. All statistical analyses were performed using the SPSS version 10.1 program (SPSS Inc, Chicago, Ill.).

As for `CC[C@@]1(O)C(=O)OCc2c1cc1n(c2=O)Cc2cc3ccccc3nc2-1` [camptothecin], the induction of apoptosis result in assay [1] was “markedly resistant”; in [2] it was “optimal inductors of apoptosis”; in [3], “optimal inductors of apoptosis”; in [4] it was “same phenomena”; in [5], “resistant to the apoptosis”; in assay [6] it was “resistant to the apoptosis”. The chromosomal breakage result is recorded as “extremely sensitive” in assay [7]; “minimal chromosomal breakage” in [8]; “minimal chromosomal breakage” in assay [9]; “extremely sensitive” in assay [10] (MDA-MB-231, WRN methylated, metaphases); “acquired a resistance” in assay [11] (MDA-MB-231 transfected with WRN, metaphases).
As to `Nc1ncn([C@H]2C[C@H](O)[C@@H](CO)O2)c(=O)n1` [5-aza-2′-deoxycytidine], the “expression of WRN RNA transcript and protein” value in assay [12] is on record as “restored the expression”. Further, the WRN-associated exonuclease activity result in assay [13] is “significant increase”.
With `CO[C@@]12[C@H](COC(N)=O)C3=C(C(=O)C(C)=C(N)C3=O)N1C[C@@H]1N[C@@H]12` [mitomycin C], the induction of apoptosis entry is “markedly resistant” in assay [1]; “optimal inductors of apoptosis” in assay [2]; “optimal inductors of apoptosis” in assay [3]; “same phenomena” in [4]; “resistant to the apoptosis” in assay [5]; “resistant to the apoptosis” in assay [6]. For the same molecule, the chromosomal breakage entry in assay [10] (MDA-MB-231 (empty vector), 50 mg/ml) is listed as “massive breakage”; in assay [11] (MDA-MB-231 transfected with the WRN gene), “resistance to the genome damage”.
Turning to `CCc1c2c(nc3ccc(OC(=O)N4CCC(N5CCCCC5)CC4)cc13)-c1cc3c(c(=O)n1C2)COC(=O)[C@]3(O)CC` [irinotecan], in assay [14], the “median time to the death of the patient” value was determined as 39.4 months.
